Counter-ions that a name gives are not always drawn. Like-named read-outs stand apart in the source and are kept apart here.
Experiments:
[1] = Relative bioavailability test; format: in vivo, SPF-grade SD rats; details: rat, in vivo, po
Experimental: HPLC-MS/MS method is used to detect the blood drug concentration of target drugs in SPF-grade SD rats, and the relative bioavailability of 0.5% CMC-Na suspension of a free base and 0.5% CMC-Na solution of a polymorph form P are calculated and compared.
60.46 mg of a free base is accurately weighed and placed into a 15 mL centrifuge tube, 12 mL of 0.5% CMC-Na solution is measured and added into the centrifuge tube with a measuring cylinder, vortexed for 5 min, and ultrasonically dispersed for 15 min to obtain 0.5% CMC-Na suspension of free base with a concentration of 5.04 mg/ml, which is currently formulated when using and vibrated at any time during administration.
60.05 mg of a polymorph form P is accurately weighed and placed into a 15 mL centrifuge tube, 12 mL of 0.5% CMC-Na solution is measured and added into the centrifuge tube with a measuring cylinder, vortexed for 5 min, and ultrasonically dispersed for 15 min to obtain 0.5% CMC-Na solution of 5.00 mg/mL polymorph form P, which is currently formulated when using.
Twelve SPF-grade SD rats are selected and randomly divided into a free base group and a polymorph form P group with 6 rats in each group (both male and female). Animals are fasted for 12 h but have free access to water. Weighing is performed and, the administration volume of each rat is calculated according to the animal weight, so that the administration dose is 20 mg/kg·bw. During administration, the drugs are each administrated by gavage, and 0.5% CMC-Na suspension/solution of the above two target drugs are extracted by 2 mL syringe respectively. The gavage needle is inserted into the stomach from the corner of the rat's mouth and pushed the solution thereto.
Blood is collected from the fundus venous plexus of rats at 0.2 mL before (0 h) and 0.5, 1, 2, 4, 6, 8, 12 and 24 h after administration, anticoagulated with 300 IU/mL heparin (1:20) and centrifuged (3000 r/min) for 15 min. After plasma separation, the blood drug concentration of the target drug is determined by HPLC-MS/MS.
Referring to the above-mentioned bioavailability test of the polymorph form P, the bioavailability tests of polymorph forms F, O, B and J are conducted respectively. Different from the bioavailability test of the polymorph form P, rats are given 0.5% CMC-Na solution of the polymorph form F, O, B or J by gavage respectively. Other operations are the same as the above bioavailability test.

[2] = Dynamic solubility test in water, SGF, FeSSIF, FaSSIF; format: physicochemical; details: for pH in clear solution: dihydrochloride
Experimental: The dynamic solubility of a free base, polymorph forms B, P, F, J and O in water or a biological medium such as Stimulated Gastric Fluid (SGF), Fed State Simulated Intestinal Fluid (FeSSIF) or Fasted State Simulated Intestinal Fluid (FaSSIF) is determined.
0.2 g sodium chloride and 0.1 g Triton X-100 is weighed and placed into a 100 mL volumetric flask. Purified water is added to dissolve. A stir is performed until the solid is completely dissolved. About 135 μL concentrated hydrochloric acid solution (37%, […]) is added, then the pH is adjusted to 1.8 with […] hydrochloric acid or 1 mmoL/L sodium hydroxide. Finally, the volume is fixed with purified water to obtain Stimulated Gastric Fluid (SGF) for later use.
Each of 0.41 mL glacial acetic acid, 0.20 g sodium hydroxide and 0.59 g sodium chloride is weighed and placed to a 50 mL volumetric flask. About 48 mL purified water is added to dissolve, the pH is adjusted to 5.0 with 1 mmoL/L hydrochloric acid or 1 mmoL/L sodium hydroxide, and the volume is fixed with purified water. Then 0.56 g of Simulated Intestinal Fluid powder (SIF powder for short, which is composed of […] with a molar ratio of 4:1) is added, stirred and ultrasonically dissolved to obtain Fed State Simulated Intestinal Fluid (FeSSIF) for later use.
Each of 0.17 g of anhydrous sodium dihydrogen phosphate (NaH2PO4), 0.021 g of sodium hydroxide and 0.31 g of sodium chloride is weighed and placed into a 50 mL volumetric flask. About 48 mL of purified water is added to dissolve, the pH is adjusted to 6.5 with 1 mmoL/L hydrochloric acid or 1 mmoL/L sodium hydroxide, and the volume is fixed with purified water. 0.11 g of SIF powder is added, stirred and ultrasonically dissolved to obtain Fasted State Simulated Intestinal Fluid (FaSSIF) for later use.
Each 30 mg of the free base, and polymorph forms B, P, F, J and O are weighed. 3 mL of purified water, Stimulated Gastric Fluid (SGF), Fed State Simulated Intestinal Fluid (FeSSIF) or Fasted State Simulated Intestinal Fluid (FaSSIF)) is added and oscillated at room temperature. 0.6 mL of suspension is taken each time at a set time point, filtered and separated with a 0.45 μm nylon filter membrane, then XRPD characterization is performed on the solid sample, and the concentration in the clear solution is measured by HPLC.

[3] = Dynamic moisture adsorption; format: physicochemical

Compound | bioavailability compared with free base [1] | solubility compared with the free base [2] | pH in clear solution ([2]; FaSSIF, Time 1) | pH in clear solution ([2]; FaSSIF, Time 2) | pH in clear solution ([2]; FaSSIF, Time 4) | pH in clear solution ([2]; FaSSIF, Time 24) | pH in clear solution ([2]; FeSSIF, Time 1) | pH in clear solution ([2]; FeSSIF, Time 2) | pH in clear solution ([2]; FeSSIF, Time 4) | pH in clear solution ([2]; FeSSIF, Time 24) | pH in clear solution ([2]; SGF, Time 1) | pH in clear solution ([2]; SGF, Time 2) | pH in clear solution ([2]; SGF, Time 4) | pH in clear solution ([2]; SGF, Time 24) | pH in clear solution ([2]; Water, Time 1) | pH in clear solution ([2]; Water, Time 2) | pH in clear solution ([2]; Water, Time 4) | pH in clear solution ([2]; Water, Time 24) | Crystal form of insoluble solid sample ([2]; pH 1.8) | solubility compared with the free base ([2]; pH 1.8) | further results
CC1CCN(C(=O)c2ccc([C@H](c3cccc(O)c3)N3C[C@@H](C)N(Cc4cccc(F)c4)C[C@@H]3C)cc2)CC1 [Polymorph form F, (4-((R)-((2S,5R)-4-(3-fluorobenzyl)-(2,5-dimethylpiperazine-1-yl)(3-hydroxyphenyl)methyl)phenyl)(4-methylpiperidine-1-yl)methanone dihydrochloride] | better bioavailability than free base | significantly improved | 3.5 | 4.6 | 4.2 | 4.5 | 4.8 | 4.9 | 4.9 | 4.9 | 1.6 | 1.6 | 1.6 | 1.4 | 1.8 | 1.9 | 1.8 | 1.5 | invariability | close to or slightly improved | Crystal form of insoluble solid sample ([2]; pH 5): invariability; Crystal form of insoluble solid sample ([2]; pH 6.5): invariability
CC1CCN(C(=O)c2ccc([C@H](c3cccc(O)c3)N3C[C@@H](C)N(Cc4cccc(F)c4)C[C@@H]3C)cc2)CC1 [Polymorph form J, (4-((R)-((2S,5R)-4-(3-fluorobenzyl)-(2,5-dimethylpiperazine-1-yl)(3-hydroxyphenyl)methyl)phenyl)(4-methylpiperidine-1-yl)methanone dihydrochloride] | better bioavailability than free base | significantly improved | 2.8 | 3.0 | 2.8 | 2.6 | 4.8 | 5.0 | 4.9 | 4.7 | 1.7 | 1.5 | 1.5 | 1.6 | 1.8 | 1.7 | 1.7 | 1.4 | – | close to or slightly improved | Crystal form of insoluble solid sample [2]: amorphism
CC1CCN(C(=O)c2ccc([C@H](c3cccc(O)c3)N3C[C@@H](C)N(Cc4cccc(F)c4)C[C@@H]3C)cc2)CC1 [Polymorph form O, (4-((R)-((2S,5R)-4-(3-fluorobenzyl)-(2,5-dimethylpiperazine-1-yl)(3-hydroxyphenyl)methyl)phenyl)(4-methylpiperidine-1-yl)methanone dihydrochloride] | better bioavailability than free base | significantly improved | 2.2 | 2.0 | 2.4 | 2.2 | 5.0 | 4.8 | 5.0 | 5.2 | 1.5 | 1.6 | 1.6 | 1.7 | 1.9 | 1.8 | 1.9 | 1.4 | – | close to or slightly improved | Crystal form change under dynamic moisture adsorption [3]: change into amorphous; Crystal form of insoluble solid sample [2]: invariability; Solubility [2]: 6200 µg/mL
CC1CCN(C(=O)c2ccc([C@H](c3cccc(O)c3)N3C[C@@H](C)N(Cc4cccc(F)c4)C[C@@H]3C)cc2)CC1 [Polymorph form P, (4-((R)-((2S,5R)-4-(3-fluorobenzyl)-(2,5-dimethylpiperazine-1-yl)(3-hydroxyphenyl)methyl)phenyl)(4-methylpiperidine-1-yl)methanone dihydrochloride] | – | significantly improved | 3.0 | 2.7 | 2.2 | 2.6 | 5.0 | 4.9 | 5.0 | 4.6 | 1.6 | 1.7 | 1.6 | 1.5 | 1.9 | 1.9 | 1.9 | 1.6 | invariability | close to or slightly improved | AUC(0-t) ([1]; both sexes, SD, 20 mg/kg): 584 ng·h/mL; Cmax ([1]; both sexes, SD, 20 mg/kg): 98.1 ± 25.2 ng/mL; Tmax ([1]; both sexes, SD, 20 mg/kg): 1.3 ± 0.5 h; bioavailability ([1]; both sexes, SD, 20 mg/kg): 202%; t1/2z ([1]; both, SD, 20 mg/kg): 2.5 ± 0.8 h; Solubility ([2]; pH 1.8, simulated gastric fluid, thermodynamic from solid, Solubility): 3400 µg/mL; Crystal form of insoluble solid sample ([2]; pH 5): invariability; Solubility ([2]; pH 5, fessif, thermodynamic from solid, Solubility): 430 µg/mL; Crystal form of insoluble solid sample ([2]; pH 6.5): invariability
